Measurements reported in the CheMixHub ionic liquid set.

Test: xn = mol fraction of the nth substance listed

C[NH+](C)C.O=S(=O)([N-]S(=O)(=O)C(F)(F)F)C(F)(F)F + N#CCCCC#N
101 kPa, x1 = 0.2167
Conditions	viscosity [mPa·s]
288 K	15.76
298 K	11.43
318 K	6.747
353 K	3.452

CCCC[n+]1ccn(C)c1.O=[N+]([O-])[O-] + CC(C)O
100 kPa
Conditions	viscosity [mPa·s]
293.15 K, x1 = 0.1596	6.9
293.15 K, x1 = 0.6506	53
293.15 K, x1 = 0.7413	70
298.15 K, x1 = 0.1596	6
298.15 K, x1 = 0.2405	9.3
298.15 K, x1 = 0.7413	56
298.15 K, x1 = 0.8515	82
303.15 K, x1 = 0.1596	5.2
303.15 K, x1 = 0.8515	63
303.15 K, x1 = 0.9396	90
308.15 K, x1 = 0.2405	6.6
308.15 K, x1 = 0.8515	51
308.15 K, x1 = 0.9396	72
308.15 K, x1 = 1	97
313.15 K, x1 = 0.3495	9
313.15 K, x1 = 0.9396	59
313.15 K, x1 = 1	75
318.15 K, x1 = 0.2405	5.2
318.15 K, x1 = 0.3495	7.9
318.15 K, x1 = 1	56
323.15 K, x1 = 0.3495	7.2

CCCCCC[n+]1ccn(C)c1.O=[N+]([O-])[O-] + CCC(C)O
viscosity [mPa·s], 100 kPa
Conditions	293.15 K	298.15 K	303.15 K	308.15 K	313.15 K	318.15 K	323.15 K
x1 = 0.0819	7.63	5.55	4.2	3.3	2.59	2.14	1.79
x1 = 0.1591	14.93	10.31	7.2	5.2	3.92	3.18	2.52
x1 = 0.2414	28.5	19.3	13.16	9.1	6.75	5.3	3.9
x1 = 0.3517	54.2	37.9	27.6	18	13.16	10.35	7.8
x1 = 0.4412	87.8	63.7	46.7	30.6	21.5	16.77	12.8
x1 = 0.5591	156.2	117.1	84.5	56.4	38	29.4	23
x1 = 0.6518	227	172.4	117.1	81.3	58.7	43	33.6
x1 = 0.7392	322	238	158.7	113.3	84.5	60.9	47.3
x1 = 0.8516	475	342	230	168.2	124.1	91.6	71.1
x1 = 0.9395	641	451	304	218	159.2	119.8	94.4
x1 = 1	804	545	369	258	186	140.2	110.9
